The subject of one data set is MDA-MBA-231. Kind of data set: In vitro cytotoxic screening (MTT assay), MDA-MBA-231. The format is cell-based, human. Conditions: mean ± SD; for IC50: 24 h, MTT assay, MDA-MBA-231 cell line; for Selectivity index S1: S1 = IC50 (MCF-7)/IC50 (MDA-MBA-231). On the procedure:
(§1) Cell lines were obtained from American Type Culture Collection, cells were cultured using DMEM (Invitrogen Life Technologies, Waltham, MA, USA) supplemented with 10% FBS (Hyclone, Logan, UT, USA), 10 µg/mL of insulin (Sigma, St. Louis, MO, USA), and 1% penicillin-streptomycin. […] At the end of the incubation, the cells were harvested and washed with PBS. 20 µL of MTT was added to each well and incubated for 2 h before 200 µL DMSO was added. The absorbance was measured on an ELISA reader (Multiskan EX, Lab systems, Waltham, MA, USA) at wavelength of 570 nm.
(§2) All assays were performed in triplicate. The results were expressed as mean ± SD (standard deviation) using Student’s t test.
Background: Formazan colour is commonly taken as a measure of viable cells.

The next data set deals with MCF-7. In words: In vitro cytotoxic screening (MTT assay), MCF-7. Conditions: for IC50: Homo sapiens, MCF7, MTT assay, 24 h, MCF-7 cell line; for IC50 / Selectivity index S2: mean ± SD; for Cell line selectivity: S1 > S2: more selective to MDA-MBA-231, S2 > S1: more selective to MCF-7; for Selectivity index S2: S2 = IC50 (MDA-MBA-231)/IC50 (MCF-7). The data set is classed as cell-based, human. On the procedure:
as §1, §2

The target of another data set is EGFR-TK (Homo sapiens, UniProt P00533). Kind of data set: EGFR inhibition assay (HT Scan EGFR kinase assay kit).

Results on ten molecules are retold here after paper PMC6032053, “Design, Synthesis, Cytotoxic Evaluation and Molecular Docking of New Fluoroquinazolinones as Potent Anticancer Agents with Dual EGFR Kinase and Tubulin Polymerization Inhibitory Effects” (International Journal of Molecular Sciences, 2018).

The structures appear in SMILES notation. Entries after “also recorded” stand apart in the source; their conditions may differ.

In general, IC50 refers to the concentration at which inhibition is half-maximal. A high value points to weaker potency in that assay. As usually defined, the melting point is the temperature, or range, at which the solid turns liquid.

Sequence of EGFR-TK (P00533 25-1210): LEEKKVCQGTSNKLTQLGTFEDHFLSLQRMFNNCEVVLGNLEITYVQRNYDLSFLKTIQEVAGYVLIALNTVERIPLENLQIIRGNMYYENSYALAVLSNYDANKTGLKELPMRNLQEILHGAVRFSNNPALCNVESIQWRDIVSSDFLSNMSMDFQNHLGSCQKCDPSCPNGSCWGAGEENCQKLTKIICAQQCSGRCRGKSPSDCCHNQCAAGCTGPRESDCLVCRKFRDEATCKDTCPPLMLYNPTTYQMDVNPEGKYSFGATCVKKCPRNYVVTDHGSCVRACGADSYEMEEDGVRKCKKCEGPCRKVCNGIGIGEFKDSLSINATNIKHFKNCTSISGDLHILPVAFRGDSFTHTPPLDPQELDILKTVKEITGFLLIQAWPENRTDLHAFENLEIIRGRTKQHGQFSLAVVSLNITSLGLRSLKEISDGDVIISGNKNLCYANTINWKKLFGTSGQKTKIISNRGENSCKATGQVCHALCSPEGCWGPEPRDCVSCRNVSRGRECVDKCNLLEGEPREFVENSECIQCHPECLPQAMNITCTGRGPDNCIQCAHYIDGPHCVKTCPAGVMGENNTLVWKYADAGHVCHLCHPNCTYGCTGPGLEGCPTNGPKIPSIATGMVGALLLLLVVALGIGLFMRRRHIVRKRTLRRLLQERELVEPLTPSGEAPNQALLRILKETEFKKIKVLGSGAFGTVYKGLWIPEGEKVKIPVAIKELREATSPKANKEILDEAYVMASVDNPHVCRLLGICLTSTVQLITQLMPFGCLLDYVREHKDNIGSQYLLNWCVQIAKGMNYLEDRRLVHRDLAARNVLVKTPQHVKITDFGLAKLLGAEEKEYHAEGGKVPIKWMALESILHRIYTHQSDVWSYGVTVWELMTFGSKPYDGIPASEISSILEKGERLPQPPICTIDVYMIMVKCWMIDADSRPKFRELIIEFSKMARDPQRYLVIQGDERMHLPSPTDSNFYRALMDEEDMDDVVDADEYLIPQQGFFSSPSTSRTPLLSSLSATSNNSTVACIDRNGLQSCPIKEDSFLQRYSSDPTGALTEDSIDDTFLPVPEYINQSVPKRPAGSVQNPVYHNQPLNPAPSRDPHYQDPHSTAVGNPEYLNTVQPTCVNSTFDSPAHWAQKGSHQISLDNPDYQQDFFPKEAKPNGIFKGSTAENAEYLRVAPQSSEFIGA
Protocol for EGFR-TK: EGFR kinase activity was measured by HT Scan EGFR kinase assay kits (Cell Signaling Technology, Danvers, MA, USA). The experiments were performed following the manufacturer’s directions. […] Strapavidin-coated 96-well plates were used to take phosphorylated substrate. Anti-phosphotyrosine and europium-labeled secondary antibodies (DELFIA, Perkin-Elmer, Akron, OH, USA) were used to monitor the level of phosphorylation.

Molecule `O=c1c2cc(F)ccc2nc(-c2ccc(F)cc2)n1N=CC=Cc1ccccc1` [Compound 8, 3-(3-Phenylallylideneamino)-6-fluoro-2-(4-fluorophenyl)quinazolin-4(3H)-one] yielded a melting point of 220 to 222 °C. The molecule also displayed an IC50 in the data set with MDA-MBA-231 (Homo sapiens) of 21600 ± 1400 nM. In addition, in the data set on MDA-MBA-231, the “Selectivity index S1” value stood at 1.69 ± 0.15. In addition, in the data set on MCF-7, the IC50 came out at 36600 ± 1810 nM, the Cell line selectivity entry is given as “more selective to MDA-MBA-231 than MCF-7; also recorded: MDA-MBA-231 selective” and the “Selectivity index S2” value worked out at 0.59 ± 0.02.
The molecule `Cc1ccc(C=Nn2c(-c3ccc(F)cc3)nc3ccc(F)cc3c2=O)cc1` [Compound 10b, 3-(4-Methylbenzylideneamino)-6-fluoro-2-(4-fluorophenyl)quinazoline-4(3H)-one] came in with a melting point of 231 to 233 °C. Moreover, in the data set with MDA-MBA-231 (Homo sapiens), the half-inhibitory concentration (IC50) was 3090 ± 80 nM. For the same molecule, the “Selectivity index S1” value in the data set with MDA-MBA-231 was 1.64 ± 0.21. In the data set on MCF-7, the IC50 was 5070 ± 330 nM, the Cell line selectivity result is recorded as “more selective to MDA-MBA-231 than MCF-7; also recorded: MDA-MBA-231 selective” and the “Selectivity index S2” value is 0.61 ± 0.06.
The molecule `O=c1c2cc(F)ccc2nc(-c2ccc(F)cc2)n1N=Cc1ccc([N+](=O)[O-])cc1` [Compound 10e, 3-(4-Nitrobenzylideneamino)-6-fluoro-2-(4-fluorophenyl)quinazolin-4(3H)-one] displayed a melting point of 235 to 237 °C. Also, the “Selectivity index S1” value with MDA-MBA-231 was 9.32 ± 0.08. The molecule further gave an IC50 on EGFR-TK of 170.08 ± 0.02 nM. For the same molecule, in the data set with MCF-7, it took 2610 ± 140 nM to reach half-maximal inhibition (IC50), the Cell line selectivity result is on record as “more selective to MDA-MBA-231 than MCF-7; also recorded: MDA-MBA-231 selective” and the “Selectivity index S2” value is reported as 0.11 ± 0.17.
With `O=c1c2cc(F)ccc2nc(-c2ccc(F)cc2)n1N=Cc1ccccc1` [Compound 10a, 3-(Benzylideneamino)-6-fluoro-2-(4-fluorophenyl)quinazolin-4(3H)-one], the melting point lay within 218 to 220 °C. Further, half-maximal inhibition with MDA-MBA-231 (Homo sapiens) (IC50) was put at 2480 ± 170 nM. In addition, in the data set on MDA-MBA-231, the “Selectivity index S1” value is 0.39 ± 0.01. Moreover, in the data set with MCF-7, half-maximal inhibition (IC50) required 950 ± 10 nM, the Cell line selectivity entry was “more selective to MCF-7 than MDA-MBA-231; also recorded: MCF-7 selective” and the “Selectivity index S2” value came out at 2.61 ± 0.09.
As for `O=C1Nc2ccccc2/C1=N\n1c(-c2ccc(F)cc2)nc2ccc(F)cc2c1=O` [Compound 6, 3-(3-Iminoindolin-2-one)-6-fluoro-2-(4-flurophenyl)quinazoline-4(3H)-one], the melting point fell in the range of 223 to 225 °C. This molecule came in with a half-maximal inhibitory concentration (IC50) with MDA-MBA-231 (Homo sapiens) of 1380 ± 140 nM. For the same molecule, the “Selectivity index S1” value in the data set with MDA-MBA-231 is given as 0.25 ± 0.06. This molecule also yielded an IC50 against EGFR-TK of 75.2 ± 0.08 nM. Moreover, in the data set with MCF-7, half-maximal inhibition (IC50) required 350 ± 10 nM, the Cell line selectivity result was “more selective to MCF-7 than MDA-MBA-231; also recorded: MCF-7 selective” and the “Selectivity index S2” value is listed as 3.94 ± 0.26.
In the case of `O=c1c2cc(F)ccc2nc(-c2ccc(F)cc2)n1N=Cc1ccco1` [Compound 7, 3-((Furan-2-yl)methyleneamino)-6-fluoro-2-(4-fluorophenyl)quinazolin-4(3H)-one], the melting point lay within 228 to 230 °C. The same molecule came in with an IC50 with MDA-MBA-231 (Homo sapiens) of 940 ± 70 nM. Besides, the “Selectivity index S1” value in the data set with MDA-MBA-231 was determined as 1.13 ± 0.09. Besides, in the data set on MCF-7, the IC50 was determined as 1060 ± 30 nM, the Cell line selectivity result is reported as “more selective to MDA-MBA-231 than MCF-7; also recorded: MDA-MBA-231 selective” and the “Selectivity index S2” value is given as 0.89 ± 0.18.
For the molecule `O=c1c2cc(F)ccc2nc(-c2ccc(F)cc2)n1N=Cc1ccc(Cl)cc1` [Compound 10f, 3-(4-Chlorobenzylideneamino)-6-fluoro-2-(4-fluorophenyl)quinazolin-4(3H)-one], the melting point was in the range of 224 to 226 °C. The molecule also registered an IC50 in the data set on MDA-MBA-231 (Homo sapiens) of 3760 ± 220 nM. Besides, the “Selectivity index S1” value in the data set with MDA-MBA-231 turned out to be 9.57 ± 0.22. Further, in the data set on MCF-7, the IC50 was 710 ± 10 nM, the Cell line selectivity result is “more selective to MCF-7 than MDA-MBA-231; also recorded: MCF-7 selective” and the “Selectivity index S2” value came to 5.29 ± 0.31.
The molecule `COc1ccc(C=Nn2c(-c3ccc(F)cc3)nc3ccc(F)cc3c2=O)cc1` [Compound 10c, 3-(4-Methoxybenzylideneamino)-6-fluoro-2-(4-fluorophenyl)quinazolin-4(3H)-one] returned a melting point of 228 to 230 °C. The IC50 in the data set on MDA-MBA-231 (Homo sapiens) was 1090 ± 10 nM. Also, in the data set on MDA-MBA-231, the “Selectivity index S1” value came to 9.57 ± 0.11. For the same molecule, in the data set with MCF-7, the IC50 worked out at 10400 ± 1140 nM, the Cell line selectivity result is “more selective to MDA-MBA-231 than MCF-7; also recorded: MDA-MBA-231 selective” and the “Selectivity index S2” value is reported as 0.10 ± 0.13.
For `O=c1c2cc(F)ccc2nc(-c2ccc(F)cc2)n1N=Cc1ccc(F)cc1` [Compound 10d, 3-(4-Fluorobenzylideneamino)-6-fluoro-2-(4-fluorophenyl)quinazolin-4(3H)-one], the melting point fell in the range of 232 to 234 °C. Further, in the data set on MDA-MBA-231 (Homo sapiens), the 50% inhibitory concentration (IC50) was found to be 382 ± 10 nM. In the data set with MDA-MBA-231, the IC50 turned out to be 380 ± 10 nM and the “Selectivity index S1” value is 2.34 ± 0.05. Also, in the data set on MCF-7, it took 890 ± 20 nM to reach half-maximal inhibition (IC50), the Cell line selectivity entry is recorded as “more selective to MDA-MBA-231 than MCF-7; also recorded: MDA-MBA-231 selective” and the “Selectivity index S2” value was 0.43 ± 0.09.
For `O=c1c2cc(F)ccc2nc(-c2ccc(F)cc2)n1N=Cc1ccc(O)cc1` [Compound 10g, 3-(4-Hydroxybenzylideneamino)-6-fluoro-2-(4-fluorophenyl) quinazolin-4(3H)-one], the melting point lay in the range of 229 to 231 °C. This molecule gave an IC50 in the data set with MDA-MBA-231 (Homo sapiens) of 2540 ± 230 nM. The “Selectivity index S1” value in the data set with MDA-MBA-231 is on record as 0.52 ± 0.07. For the same molecule, in the data set with MCF-7, the midpoint of inhibition, the IC50, lay at 1320 ± 80 nM; the Cell line selectivity entry is recorded as “more selective to MCF-7 than MDA-MBA-231; also recorded: MCF-7 selective”; the “Selectivity index S2” value is reported as 1.92 ± 0.05.
